Data on one compound can be found in patent US20200011856A1, “Method for Determining the Effectiveness of Treatment for the Prevention of Heartworm Disease” (priority 2017, published 2020).

Several values for one entry are separate records, joined by “and”; a condition that tells them apart may be missing. Equal values may be shown once.

One experiment relates to Haemonchus contortus. Description: Haemonchus contortus L3 infection of control and MPA-treated NSG mice, worm and egg recovery. Format: in vivo.
Experiment [1] concerns Strongyloides stercoralis. Description: Strongyloides stercoralis L3 infection of NSG mice with or without MPA, treatment, counts of adult worms, L1 and L3. The settings on record: MPA only (hyperinfection); 5000 L3 s.c.; 6 weeks post-injection.
Source text: NSG mice infected by subcutaneous injection with 5000 S. stercoralis L3 larvae, either with or without MPA. […] Adult worms, L1 larvae, or L3 larvae were counted in the mice at 6 weeks post-injection.

As for `CC(=O)OCC(=O)[C@@]1(O)CC[C@H]2[C@@H]3C[C@H](C)C4=CC(=O)C=C[C@]4(C)[C@H]3[C@@H](O)C[C@@]21C` [MPA, methylprednisolone acetate], the “Hc Recovery, Average” value stood at 10.5 with Haemonchus contortus (MPA-treated NSG mice, 500 Hc L3 oral gavage, 14 Days PI); 2 in the experiment on Haemonchus contortus (MPA-treated NSG mice, 500 Hc L3 oral gavage, 21 Days PI); 0 in the experiment on Haemonchus contortus (MPA-treated NSG mice, 500 Hc L3 oral gavage, 28 Days PI); 0 in the experiment with Haemonchus contortus (MPA-treated NSG mice, 500 Hc L3 oral gavage, 56 Days PI); 19.5 with Haemonchus contortus (MPA-treated NSG mice, 500 Hc L3 oral gavage, 7 days PI); 36 in the experiment with Haemonchus contortus (MPA-treated NSG mice, 1000 Hc L3 oral gavage, 7 days PI). For the same compound, the “Hc Recovery (individual mice)” value is 15 and 1 in the experiment with Haemonchus contortus (MPA-treated NSG mice, 1000 Hc L3 oral gavage, 14 Days PI); 15 and 20 in the experiment with Haemonchus contortus (MPA-treated NSG mice, 1000 Hc L3 oral gavage, 21 Days PI); 0 and 1 in the experiment with Haemonchus contortus (MPA-treated NSG mice, 1000 Hc L3 oral gavage, 28 Days PI); 0 in the experiment with Haemonchus contortus (MPA-treated NSG mice, 1000 Hc L3 oral gavage, 56 Days PI); 19 and 2 and 0 and 36 and 3 and 24 and 48 with Haemonchus contortus (in vivo, po). Moreover, the “# Eggs Found” value with Haemonchus contortus (in vivo) is 2. Moreover, the “Adult S. stercoralis recovery counts (individual mice)” value in experiment [1] was 888 and 235 and 34 and 437 and 581 and 447. Besides, the “Adult S. stercoralis recovery counts, mean” value in experiment [1] is 437. Also, the “L1 S. stercoralis recovery counts (individual mice)” value in experiment [1] is 86 and 24 and 8456 and 9181 and 3464 and 670. Besides, the “L1 S. stercoralis recovery counts, mean” value in experiment [1] amounted to 3647. In addition, the “L3 S. stercoralis recovery counts (individual mice)” value in experiment [1] was 275 and 31 and 2760 and 1766 and 632 and 1015. For the same compound, the “L3 S. stercoralis recovery counts, mean” value in experiment [1] was 1080.
